Assay results taken from the supplement of paper PMC10307832.

Columns and labels:
Test in all cases: relative viability (nuclei count vs DMSO), 5 days (fraction); higher = more cells survive
[1] = compound: CC1=C(C(=O)N2C=CSC2=N1)CCN3CCC(=C(C4=CC=CC=C4)C5=CC=C(C=C5)F)CC3 + CC(=O)c1c(C)c2cnc(Nc3ccc(N4CCNCC4)cn3)nc2n(C2CCCC2)c1=O [Palbociclib] (partner 0.5 µM)
How it was run: (§1)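 The day after seeding in 1536-well plates, lung cancer cell lines were treated by pin tool with a single drug, or with a fixed anchor-drug dose together with five library-drug doses (not always all listed) in √10 steps. After 5 days, a combined fix-and-stain solution (final 0.05% Triton X-100, 1% formaldehyde, 1 ug/ml Hoechst) was added. Nuclei counted on 4× images gave relative viability as treated counts over vehicle counts, reported as the median of duplicate plates.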

[2] = compound: CC1=C(C(=O)N2C=CSC2=N1)CCN3CCC(=C(C4=CC=CC=C4)C5=CC=C(C=C5)F)CC3 + C[C@@H](Oc1cc(-c2cnn(C3CCNCC3)c2)cnc1N)c1c(Cl)ccc(F)c1Cl [Crizotinib] (partner 1 µM)
How it was run: as §1

[3] = compound: CC1=C(C(=O)N2C=CSC2=N1)CCN3CCC(=C(C4=CC=CC=C4)C5=CC=C(C=C5)F)CC3 + NC(=O)Nc1cc(-c2cccc(F)c2)sc1C(=O)N[C@H]1CCCNC1 [AZD7762] (partner 0.2 µM)
How it was run: as §1

[4] = compound: CC1=C(C(=O)N2C=CSC2=N1)CCN3CCC(=C(C4=CC=CC=C4)C5=CC=C(C=C5)F)CC3 + O=C(CCCCCCC(=O)Nc1ccccc1)NO [Vorinostat] (partner 1 µM)
How it was run: as §1

Cell Line	relative viability ([1]; first compound 0.08 µM)	relative viability ([1]; first compound 0.253 µM)	relative viability ([1]; first compound 0.8 µM)	relative viability ([1]; first compound 2.53 µM)	relative viability ([1]; first compound 8 µM)	relative viability ([2]; first compound 0.08 µM)	relative viability ([2]; first compound 0.253 µM)	relative viability ([2]; first compound 0.8 µM)	relative viability ([2]; first compound 2.53 µM)	relative viability ([2]; first compound 8 µM)	relative viability ([3]; first compound 0.08 µM)	relative viability ([3]; first compound 0.253 µM)	relative viability ([3]; first compound 0.8 µM)	relative viability ([3]; first compound 2.53 µM)	relative viability ([3]; first compound 8 µM)	relative viability ([4]; first compound 0.08 µM)	relative viability ([4]; first compound 0.253 µM)	relative viability ([4]; first compound 0.8 µM)	relative viability ([4]; first compound 2.53 µM)	relative viability ([4]; first compound 8 µM)
NCI-H838	0.207	0.213	0.268	0.207	0.191	0.583	0.854	0.837	0.925	0.616	0.839	0.904	0.992	0.958	0.806	0.688	0.692	0.738	0.8	0.573
NCI-H1355	0.368	0.404	0.378	0.407	0.455	1.12	1.16	1.04	1.17	0.712	1.02	0.846	0.822	0.815	0.595	0.588	0.602	0.6	0.611	0.529
NCI-H1437	0.297	0.317	0.325	0.323	0.257	–	0.902	0.978	1.03	0.604	1.25	1.32	1.21	1.14	1.04	0.702	0.867	0.901	0.9	0.386
NCI-H1651	0.499	0.534	0.508	0.517	0.481	0.83	0.829	0.891	0.971	0.773	0.438	0.467	0.472	0.467	0.304	0.552	0.547	0.557	0.616	0.452
NCI-H1666	0.663	0.616	0.627	0.739	1.01	0.909	0.939	0.839	0.937	0.866	0.787	0.819	0.847	0.946	0.673	1	0.911	1.11	1.09	0.891
NCI-H1734	0.367	0.342	0.324	0.318	0.378	0.661	0.653	0.625	0.672	0.467	0.545	0.487	0.475	0.549	0.368	0.881	0.652	0.734	0.86	0.747
NCI-H1755	0.433	0.429	0.395	0.426	0.432	0.927	0.87	0.907	0.997	0.722	0.465	0.446	0.434	0.508	0.418	0.704	0.71	0.789	0.759	0.571
NCI-H1915	0.559	0.542	0.496	0.498	0.397	0.953	1.01	0.957	0.862	0.521	0.714	0.802	0.662	0.75	0.518	0.554	0.584	0.538	0.524	0.383
